Results published in ChEMBL document CHEMBL1255452, “Skin concentrations and pharmacokinetics of posaconazole after oral administration” (Antimicrob Agents Chemother, 2010).

Experiments:
[1] = Cmax in high fat fed healthy human skin at 400 mg, po bid after 1 day; assay type: ADME, organism-based, Zone of skin; set-up: dose 400 mg, route oral
[2] = Cmax in high fat fed healthy human skin at 400 mg, po bid after 8 days; assay type: ADME, organism-based, Zone of skin; set-up: dose 400 mg, route oral
[3] = AUC (0 to 12 hrs) in high fat fed healthy human plasma measured per ml of plasma at 400 mg, po bid after 1 day; assay type: ADME, organism-based; set-up: dose 400 mg, time < 12 hr, route oral
[4] = AUC (0 to 12 hrs) in high fat fed healthy human plasma measured per ml of plasma at 400 mg, po bid after 8 days; assay type: ADME, organism-based; set-up: dose 400 mg, time < 12 hr, route oral
Zone of skin [5] = assay: AUC (0 to 12 hrs) in high fat fed healthy human skin measured per gram of tissue at 400 mg, po bid after 1 day; assay type: ADME, organism-based; set-up: dose 400 mg, time < 12 hr, route oral; conditions: in vivo
Zone of skin [6] = assay: AUC (0 to 12 hrs) in high fat fed healthy human skin measured per gram of tissue at 400 mg, po bid after 8 days; assay type: ADME, organism-based; set-up: time < 12 hr, dose 400 mg, route oral; conditions: in vivo
[7] = AUC (0 to 24 hrs) in high fat fed healthy human plasma measured per ml of plasma at 400 mg, po bid after 1 day; assay type: ADME, organism-based; set-up: time < 24 hr, dose 400 mg, route oral
[8] = AUC (0 to 24 hrs) in high fat fed healthy human plasma measured per ml of plasma at 400 mg, po bid after 8 days; assay type: ADME, organism-based; set-up: time < 24 hr, dose 400 mg, route oral
Zone of skin [9] = assay: AUC (0 to 24 hrs) in high fat fed healthy human skin measured per gram of tissue at 400 mg, po bid after 1 day; assay type: ADME, organism-based; set-up: dose 400 mg, time < 24 hr, route oral; conditions: in vivo
Zone of skin [10] = assay: AUC (0 to 24 hrs) in high fat fed healthy human skin measured per gram of tissue at 400 mg, po bid after 8 days; assay type: ADME, organism-based; set-up: dose 400 mg, time < 24 hr, route oral; conditions: in vivo
[11] = T>MIC90 in fungus infected patient plasma at 400 mg, po bid after 1 day; assay type: functional
[12] = T>MIC90 in fungus infected patient plasma at 400 mg, po bid after 8 days; assay type: functional
[13] = T>MIC90 in fungus infected patient skin at 400 mg, po bid after 1 day; assay type: functional
[14] = T>MIC90 in fungus infected patient skin at 400 mg, po bid after 8 days; assay type: functional
Homo sapiens [15] = assay: Toxicity in healthy human assessed as treatment-emergent adverse events at 400 mg, po bid after 8 days; assay type: organism-based; conditions: in vivo, 192 h
Homo sapiens [16] = assay: Toxicity in healthy human assessed as treatment related treatment-emergent adverse events at 400 mg, po bid after 8 days; assay type: organism-based; conditions: in vivo, 192 h
[17] = Ratio of AUC in skin to plasma in healthy human at 400 mg, po bid after 8 days; assay type: ADME, organism-based, Skin of body; conditions: skin and plasma
[18] = Tmax in high fat fed healthy human plasma at 400 mg, po bid after 1 day; assay type: ADME, organism-based
[19] = Tmax in high fat fed healthy human skin at 400 mg, po bid after 1 day; assay type: ADME, organism-based, Zone of skin
[20] = Tmax in high fat fed healthy human skin at 400 mg, po bid after 8 days; assay type: ADME, organism-based, Zone of skin
[21] = Cmax in high fat fed healthy human plasma at 400 mg, po bid after 1 day; assay type: ADME, organism-based; set-up: dose 400 mg, route oral
[22] = Cmax in high fat fed healthy human plasma at 400 mg, po bid after 8 days; assay type: ADME, organism-based; set-up: dose 400 mg, route oral

Q: Which results are given for `CC[C@@H]([C@H](C)O)n1ncn(-c2ccc(N3CCN(c4ccc(OC[C@@H]5CO[C@@](Cn6cncn6)(c6ccc(F)cc6F)C5)cc4)CC3)cc2)c1=O` [POSACONAZOLE]?
A: Cmax [1]: 328 ng/g; Cmax [2]: 2610 ng/g; AUC at 12 h [3]: 3630 ng·h/mL; AUC at 12 h [4]: 18600 ng·h/mL; AUC (Zone of skin [5]): 1760 ng·h/g; AUC (Zone of skin [6]): 23400 ng·h/g; AUC at 24 h [7]: 7260 ng·h/mL; AUC at 24 h [8]: 37200 ng·h/mL; AUC (Zone of skin [9]): 3520 ng·h/g; AUC (Zone of skin [10]): 46800 ng·h/g; T>MIC90 [11]: 8.13 h; T>MIC90 [12]: 12 h; T>MIC90 [13]: 2.24 h; T>MIC90 [14]: 12 h; Activity (Homo sapiens [15]): 57%; Activity (Homo sapiens [16]): 37%; Kp at 192 h [17]: 1.26; Tmax [18]: 8 h; Tmax [19]: 12 h; Tmax [20]: 3 h; Cmax [21]: 453 ng/mL; Cmax [22]: 1740 ng/mL
